Data set [1] addresses T1, human mGlu5 receptor (CHO T-REx h-mGluR5 cells) (Homo sapiens (Human), UniProt P41594). The data set can be described thus: Radioligand binding assay at cloned mGluR5 ([3H]MPEP displacement). Conditions: 4 nM [3H]MPEP, read-out: h.c. mglu R5 IC50. From the text:
(§1) Cell lines stably transfected were generated using inducible expression vectors encoding human mGlu5 receptor using the Tetracycline-Regulated Expression system (T-REx™ system, Invitrogen, Life Technologies). Human mGluR5 open reading frame (ORF), comprehensive of the stop codon, were cloned into the pcDNA4/TO/myc-His™ A vector, carrying the TetO2 sequences. The insertion site was HindIII-PstI for mGluR5 receptors. The obtained constructs were then transfected into the T-REx CHO™ cell line using the FuGENE protocol (Roche); the CHO T-REx™ cell line stably expresses the Tet repressor (from the pcDNA6/TR plasmid) under the selection of blasticidin, 10 μg/ml. Stable clones were obtained selecting with zeocine 1 mg/ml and maintaining in ULTRA CHO medium (LONZA) supplemented with dialyzed FBS, zeocin, blasticidine, at 37° C., in an atmosphere of 5% CO2. The expression of h-mGluR5 receptors was de-repressed with 1 μg/ml tetracycline for 18 h before binding experimentation, while the expression of h-mGluR5 receptors was de-repressed respectively with 3 ng/ml and 10 ng/ml tetracycline for 18 h before calcium fluorescence experimentation.
Affinity at transmembrane glutamate metabotropic mGluR5 receptor subtypes was evaluated according to the methods of Anderson (Anderson et al., J Pharmacol. Exp. Ther., (2002), Vol. 303(3), pp. 1044-51), with some modifications. Cloned mGluR5 was obtained by re-suspending CHO T-REx h-mGluR5 cells (50 μg/well) in 20 mM HEPES, 2 mM MgCl2, 2 mM CaCl2, pH 7.4, that then were incubated in a final volume of 1 ml for 60 min at 25° C. with 4 nM [^3H]MPEP in the absence or presence of competing drugs. Non-specific binding was determined in the presence of […] MPEP. The incubation was stopped by addition of cold Tris buffer pH 7.4 and rapid filtration through 0.2% polyethyleneimine pretreated Filtermat 1204-401 (Perkin Elmer) filters. The filters were then washed with cold buffer and the radioactivity retained on the filters was counted by liquid scintillation spectrometry (Betaplate 1204 BS-Wallac).
(§2) The antagonist potency was determined using the EC80 of the quisqualate used as agonist and the potentiation of mGlu5 activation was determined using the EC20 of the agonist (quisqualate or glutamate). The compounds were applied 10 minutes before the application of the agonist. For binding and calcium assay studies, the compounds were dissolved in DMSO or demineralized water according to their solubility. All the reported doses were those of the corresponding salts or bases.
The inhibition curves of the tested compounds at native and cloned mGluR1 and mGluR5 subtypes were determined by nonlinear regression analysis using software Prism 4.0 (Graphpad, San Diego, Calif.). The IC50 values and pseudo-Hill slope coefficients were estimated by the program. The values for the inhibition constant, Ki, were calculated according to the equation Ki=IC50/(1+[L]/Kd), where [L] is the concentration of radioligand and Kd is the equilibrium dissociation constant of the radioligand-receptor complex (Cheng et al., Biochem. Pharmacol. (1973), Vol. 22, pp. 3099-3108).

For data set [2], the target named is T1, human mGlu5 receptor (CHO T-REx h-mGluR5 cells). The data set is described as follows: Calcium fluorescence measurement, antagonist potency against EC80 of quisqualate. The following applies: agonist quisqualate at EC80; read-out: h.c. mgluR5 Calcium IC50. It is filed as cell-based.
Source text: as §1
(§3) Cells were seeded into black-walled, clear-bottom, 96-well plates at a density of 80000 cell/well, in RPMI (without Phenol Red, without L-glutamine; Gibco LifeTechnologies, CA) supplemented with 10% dialyzed FBS. Following 18-h incubation with tetracycline, the cells were loaded with […] Ca^2+—sensitive fluorescent dye Fluo-4/AM (Molecular Probes) in Hanks' balanced saline solution (HBSS, Gibco LifeTechnologies, CA) with 20 mM Hepes (Sigma) and 2.5 mM probenecid (Sigma), for 1 h at 37° C. The cells were washed three times with HBSS to remove extracellular dye. Fluorescence signals were measured by using the fluorescence microplate reader Flexstation III (Molecular Devices) at sampling intervals of 1.5 s for 60 s.
as §2

Data set [3] shares this target. The data set is described as follows: Calcium fluorescence measurement, potentiation of mGlu5 activation at EC20 of glutamate. It is filed as cell-based.
Source text: as §1, §3, §2

Data set [4] has the same target. The data set is described as follows: Calcium fluorescence measurement, potentiation of mGlu5 activation at EC20 of quisqualate. It is filed as cell-based. The following applies: for Fold Shift 1 microM Quisq. / Fold Inc. Quisq.: agonist quisqualate; for EC50: potentiation, agonist quisqualate at EC20, read-out: EC50 nM Quisq.
Source text: as §1, §3, §2

Some results are limits rather than exact numbers.

T1 sequence (P41594 21-1212): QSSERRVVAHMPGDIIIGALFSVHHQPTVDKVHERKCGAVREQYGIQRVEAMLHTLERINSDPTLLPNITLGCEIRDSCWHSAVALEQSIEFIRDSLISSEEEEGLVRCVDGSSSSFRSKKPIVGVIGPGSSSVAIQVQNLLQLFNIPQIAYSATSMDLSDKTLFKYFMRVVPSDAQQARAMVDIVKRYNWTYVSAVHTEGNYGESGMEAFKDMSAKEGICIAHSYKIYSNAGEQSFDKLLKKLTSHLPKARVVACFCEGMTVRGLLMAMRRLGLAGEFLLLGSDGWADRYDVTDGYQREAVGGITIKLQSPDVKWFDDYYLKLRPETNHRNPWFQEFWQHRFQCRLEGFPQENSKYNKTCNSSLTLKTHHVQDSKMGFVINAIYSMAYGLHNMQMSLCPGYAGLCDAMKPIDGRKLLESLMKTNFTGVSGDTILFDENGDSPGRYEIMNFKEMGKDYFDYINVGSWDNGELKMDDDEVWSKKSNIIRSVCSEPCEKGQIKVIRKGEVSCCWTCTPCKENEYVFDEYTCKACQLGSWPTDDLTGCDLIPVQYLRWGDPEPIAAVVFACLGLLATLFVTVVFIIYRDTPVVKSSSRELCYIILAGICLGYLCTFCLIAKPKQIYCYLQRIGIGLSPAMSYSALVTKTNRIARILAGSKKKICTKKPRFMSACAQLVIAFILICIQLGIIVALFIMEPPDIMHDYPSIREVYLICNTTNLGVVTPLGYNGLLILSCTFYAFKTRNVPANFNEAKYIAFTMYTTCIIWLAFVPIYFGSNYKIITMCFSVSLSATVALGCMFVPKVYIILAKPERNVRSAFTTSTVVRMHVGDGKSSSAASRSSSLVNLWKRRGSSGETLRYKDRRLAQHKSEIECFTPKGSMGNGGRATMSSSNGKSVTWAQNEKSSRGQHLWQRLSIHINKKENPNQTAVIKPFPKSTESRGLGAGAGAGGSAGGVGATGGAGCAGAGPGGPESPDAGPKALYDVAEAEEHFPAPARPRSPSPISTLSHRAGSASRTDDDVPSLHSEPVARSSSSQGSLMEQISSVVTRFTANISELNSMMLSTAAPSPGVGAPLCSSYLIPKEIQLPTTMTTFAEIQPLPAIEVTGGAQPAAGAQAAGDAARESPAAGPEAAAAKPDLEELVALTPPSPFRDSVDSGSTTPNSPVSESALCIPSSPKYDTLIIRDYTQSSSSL

Take `Cc1cccc(C#CC2=NOC3C2CCN3C(=O)N2CCCC2)c1` (stereo not drawn) [Example 11, [3-[2-(m-tolyl)ethynyl]-3a,4,5,6a-tetrahydropyrrolo[3,2-d]isoxazol-6-yl]-pyrrolidin-1-yl-methanone]: the figures for the IC50 in data set [1] and in data set [2] were 17 nM and more than 1000 nM, respectively.

As to `O=C(N1CCOCC1)N1CCC2C(C#Cc3cccc(Cl)c3)=NOC21` (stereo not drawn) [Example 6, [3-[2-(3-chlorophenyl)ethynyl]-3a,4,5,6a-tetrahydropyrrolo[3,2-d]isoxazol-6-yl]-morpholino-methanone], in data set [3] (1 microM, agonist glutamate), the “Fold Increase 1 microM Glutam.” value came out at 3.24 fold. Also, in data set [3] (agonist glutamate), the “Fold Increase Glutam.” value amounted to 5.1 fold. For the same compound, the EC50 in data set [3] (potentiation, agonist glutamate at EC20, read-out: EC50 nM Glutam.) was 95.2 nM. Moreover, the IC50 in data set [1] amounted to 24.8 nM. Also, in data set [4], the “Fold Shift 1 microM Quisq.” value amounted to 2.7 fold, the “Fold Inc. Quisq.” value came to 3.3 fold and the EC50 was 132 nM.

Consider `CC(C)(C)OC(=O)N1CCC2C(C#Cc3cccc(Cl)c3)=NOC21` (stereo not drawn) [Example 1, tert-butyl 3-[2-(3-chlorophenyl)ethynyl]-3a,4,5,6a-tetrahydropyrrolo[3,2-d]isoxazole-6-carboxylate], for which the IC50 in data set [1] was found to be 3.87 nM. In addition, the IC50 in data set [2] is more than 1000 nM. Moreover, in data set [4], the “Fold Shift 1 microM Quisq.” value was 1.8 fold, the “Fold Inc. Quisq.” value came to 1.96 fold and the EC50 was 37.1 nM.

With `CN(C)C(=O)N1CCC2C(C#Cc3cccc(Cl)c3)=NOC21` (stereo not drawn) [Example 7, 3-[2-(3-chlorophenyl)ethynyl]-N,N-dimethyl-3a,4,5,6a-tetrahydropyrrolo[3,2-d]isoxazole-6-carboxamide], the IC50 in data set [1] was 59.2 nM; in data set [2], 212 nM.

As for `O=C(c1ccco1)N1CCC2C(C#Cc3cccc(Cl)c3)=NOC21` (stereo not drawn) [Example 2, [3-[2-(3-chlorophenyl)ethynyl]-3a,4,5,6a-tetrahydropyrrolo[3,2-d]isoxazol-6-yl]-(2-furyl)methanone], the IC50 is 29.6 nM in data set [1] and more than 1000 nM in data set [2]. In data set [4], the “Fold Inc. Quisq.” value worked out at 0 fold.

With `CON(C)C(=O)N1CCC2C(C#Cc3cccc(C)c3)=NOC21` (stereo not drawn) [Example 15, N-methoxy-N-methyl-3-[2-(m-tolyl)ethynyl]-3a,4,5,6a-tetrahydropyrrolo[3,2-d]isoxazole-6-carboxamide], the IC50 in data set [1] amounted to 22 nM; in data set [2], 21.1 nM.

For `Cc1cccc(C#CC2=NOC3C2CCN3C(=O)N2CCOCC2)c1` (stereo not drawn) [Example 13, morpholino-[3-[2-(m-tolyl)ethynyl]-3a,4,5,6a-tetrahydropyrrolo[3,2-d]isoxazol-6-yl]methanone], the IC50 in data set [1] stood at 50 nM. Moreover, the IC50 in data set [2] is more than 1000 nM. Also, in data set [4], the “Fold Shift 1 microM Quisq.” value is 3.2 fold, the “Fold Inc. Quisq.” value was found to be 2.06 fold and the EC50 was 131 nM.

On to `Cc1cccc(C#CC2=NOC3C2CCN3C(=O)OC(C)(C)C)c1` (stereo not drawn) [Example 10, tert-butyl 3-[2-(m-tolyl)ethynyl]-3a,4,5,6a-tetrahydropyrrolo[3,2-d]isoxazole-6-carboxylate], for which the IC50 in data set [1] is 3.65 nM. The 50% inhibitory concentration (IC50) in data set [2] is more than 1000 nM. Moreover, in data set [4], the “Fold Shift 1 microM Quisq.” value worked out at 2.2 fold, the “Fold Inc. Quisq.” value was 3.5 fold and the EC50 stood at 141 nM.

As to `CCN(CC)C(=O)N1CCC2C(C#Cc3cccc(C)c3)=NOC21` (stereo not drawn) [Example 14, N,N-diethyl-3-[2-(m-tolyl)ethynyl]-3a,4,5,6a-tetrahydropyrrolo[3,2-d]isoxazole-6-carboxamide], the values for the IC50 in data set [1] and in data set [2] were 14.8 nM and more than 1000 nM, respectively.

As to `CCOC(=O)N1CCC2C(C#Cc3cccc(Cl)c3)=NOC21` (stereo not drawn) [Example 3, ethyl 3-[2-(3-chlorophenyl)ethynyl]-3a,4,5,6a-tetrahydropyrrolo[3,2-d]isoxazole-6-carboxylate], the IC50 turned out to be 81.5 nM in data set [1] and 54.8 nM in data set [2].

In the case of `O=C(N1CCCC1)N1CCC2C(C#Cc3cccc(Cl)c3)=NOC21` (stereo not drawn) [Example 9, [3-[2-(3-chlorophenyl)ethynyl]-3a,4,5,6a-tetrahydropyrrolo[3,2-d]isoxazol-6-yl]-pyrrolidin-1-yl-methanone], the values for the IC50 in data set [1] and in data set [2] were 15 nM and more than 1000 nM, respectively.

In the case of `O=C(N1CCCCC1)N1CCC2C(C#Cc3cccc(Cl)c3)=NOC21` (stereo not drawn) [Example 8, [3-[2-(3-chlorophenyl)ethynyl]-3a,4,5,6a-tetrahydropyrrolo[3,2-d]isoxazol-6-yl]-(1-piperidyl)methanone], the values for the IC50 in data set [1] and in data set [2] were 12.5 nM and more than 1000 nM, respectively.

For the origin of these results see patent US9593127B2, “Heterocyclylalkyne derivatives and their use as modulators of mGluR5 receptors” (RECORDATI IRELAND LTD., priority 2014, dated 2017).
